Results taken from a melting point compilation (Tetko et al.).

Structure (SMILES)	melting point [°C]
Cc1cccc(C(=O)Cl)c1	-23
CCC1(O)CCC2C3CCC4=CCCCC4C3CCC21C (stereo unspecified)	77
Cc1cc([N+](=O)[O-])c[nH]c1=O	230 to 234
S=c1cn[nH]c(=S)[nH]1	209 to 210
CC1CC(N(C)C)C(O)C(OC2C(C)CC(C)C(=O)C=CC(C)C(C(C)O)OC(=O)C2C)O1 (stereo unspecified)	157
O=[N+]([O-])c1cc(CO)ccc1O	94 to 98
CSC(SC)=C1CCCC(=C(SC)SC)C1=C(C#N)C#N	155 to 156
Cc1ccc(S(C)(=O)=O)cc1	88
C=CCC1=C(OC(C)=O)C2=CC=C3C(C)=C(C)C(=O)CC3(C)C2=C(O)C1=O (stereo unspecified)	93
CS(=O)(=O)CC(=O)O	117
CC(C)(C)S(=O)(=O)CC(N)=S	184 to 186
C1CCN(SSN2CCCCC2)CC1	64.2
O=[N+]([O-])c1ccccc1OCCBr	40 to 44
CC(=O)OC1CC2C(CCC3(C)C(C(C)CCCC(C)C)CCC23)C2(C)CCC(=O)C=C12 (stereo unspecified)	101 to 102
C=Cc1cc(C)ccc1C	-35
O=C(O)CSc1ccc(F)cc1	78
C[C@]12CCC(=O)C=C1CCC[C@@H]2O	57
CC(C)CCCCCCCOC(=O)CCCCC(=O)OCCCCCCCC(C)C	27.4
Nc1csc2nccnc12	88 to 89
O=C(O)c1cc(F)cc(Br)c1	143
O=C(O)c1cccc(Br)c1F	169
C=C(C)CCCCCCCCC	-40

Structure (SMILES)	melting point [°C]
C=COCCCCCCCCCCCCCCCCCC	30
O=c1[nH]cc(Cl)c(=O)[nH]1	300
O=Cc1cn(Cc2ccccc2)c2ccccc12	108 to 110
Cc1cccc2c1CC(C(=O)O)NC2 (racemic)	316 to 318
CCOC(=O)c1c(SC)nn(C(N)=O)c1N	155
O=C1OC(=O)c2c(F)cccc21	159 to 163
O=C(O)c1cc(Cl)c(C(=O)O)cc1Cl	306
Cn1cc([N+](=O)[O-])c(=O)[nH]c1=O	267 to 270
CCCCCCCCOC(=O)CCCCC(=O)OCCCCCCCC	-70
O=C(Nc1ccccc1)C(Cl)(Cl)Cl	96
OC(O)C(Br)(Br)Br	53.5
CCC1CC(NC(=O)CBr)C(C)(C)N1O (stereo unspecified)	148 to 150
O=CC(C=O)c1ccccc1[N+](=O)[O-]	118 to 123
COC(=O)c1cc(O)c(O)c(O)c1	262
CCC(C)(c1ccc(O)cc1)c1ccc(O)cc1	120
C=CCC1(O)CCC2C3CCC4=CC(=O)CCC4=C3C=CC21C (stereo unspecified)	120
C=Nc1cnn(-c2ncnc3c2cnn3C)c1C=COCC	155
COc1c(C(=O)O)csc1Br	155 to 156
Fc1ccc(-n2cc[nH]c2=S)cc1	207 to 209
Cc1onc(-c2c(Cl)cccc2Cl)c1C(=O)NN	150 to 152
O=[N+]([O-])c1ccc(S(=O)(=O)Cl)cc1Cl	38
C=CCOCC=C	-6

Structure (SMILES)	melting point [°C]
CNC(=O)Oc1cc(C(C)(C)C)cc(C(C)(C)C)c1	103
Cc1c(C)c(C)c2c(c1C)CC2(C)O (stereo unspecified)	90
COc1cccc(F)c1C=O	59
CCOC(=O)c1cc(-c2ccc(Br)s2)on1	51 to 53
Cc1ccc2c(c1)/C(=N/NC(N)=O)CC2C (stereo unspecified)	227
CS(=O)(=O)c1ccc(F)c([N+](=O)[O-])c1	152 to 158
CS(=O)c1cccc(CC(=O)O)c1 (stereo unspecified)	111
CC(C=CC=C(C)C=CC1=C(C)CC(O)CC1(C)C)=CC=CC=C(C)C=CC=C(C)C=CC1C(C)=CC(O)CC1(C)C (stereo unspecified)	196
Nc1ncnc2[nH]ncc12	325
O=C(O)CCCCCCCc1ccccc1	28
NCP(=O)(O)O	300
CCCC(C)Cl (stereo unspecified)	-80
Cc1ccccc1NC(N)=S	162
O=C(NCN1CCOCC1)c1cnccn1	118
O=C(O)c1c[nH]cn1	243 to 245
O=C(O)Cc1cccnc1	144
Cc1nc2ccccn2c1CO	157 to 158
CC(=O)Cc1ccccc1	-15
CCOC(=O)C1=C(C)NC(=S)NC1c1ccco1 (stereo unspecified)	174 to 175
O=[N+]([O-])c1cc([N+](=O)[O-])c(Cl)c(C(F)(F)F)c1	63
CCCCCCCCCCCCCCCCCCCCCCCCCCO	80
OCC(O)CN1CCCC1 (stereo unspecified)	43 to 48

Structure (SMILES)	melting point [°C]
OCc1ccc(N2CCOCC2)nc1	74 to 76
Cc1ccc(C#N)c(C#N)c1	118 to 121
O=C(Nc1ccc([N+](=O)[O-])cc1Cl)C1(F)C(F)(F)C(F)(F)C(F)(F)C(F)(F)C1(F)F	93
CC(C)OC=O	-80
CCOC(=O)C1=C(N)CCC1	57 to 60
CC(C)=CCC/C(C)=N/NC(N)=O	136
CN1CCC23CCCCC2C1Cc1ccc(O)cc13 (stereo unspecified)	198
Oc1ccc(O)c(Br)c1	112
O=C(NCc1ccc(Cl)cc1)c1cc([N+](=O)[O-])cc([N+](=O)[O-])c1	200 to 202
CN(C)S(F)(F)F	-78.7
O=C(O)C=Cc1ccccc1F	179
COC(=O)c1ccc([N+](=O)[O-])c(O)c1	91
Cc1ccc(N=CN(C)C=Nc2ccc(C)cc2C)c(C)c1	86
CCCCCCCCCCCCc1ccccc1S(=O)(=O)O	10
CN1C2CC3CC1C(O3)C2O (stereo unspecified)	108
NS(=O)(=O)c1cccc(Cl)c1Cl	220
Cc1nn(C)c(C)c1N	102
CCCCCCCCCCCCCCCC(=O)OCC	24
OCCC(F)(F)C(F)(F)C(F)(F)C(F)(F)C(F)(F)C(F)(F)C(F)(F)C(F)(F)F	46.2

Other lines, results leading:

melting point [°C]	Structure (SMILES)
234	COC(=O)C1C(O)CCC2CN3CCc4c([nH]c5ccccc45)C3CC21 (stereo unspecified)
130 to 131	Nc1ccc(N2CCOCC2)cc1
120	OC(CCN1CCCCC1)(c1ccccc1)c1ccccc1
235	N#CC(=C1CCCC1)c1nc2ccccc2s1
40.5	CN(C)C(=O)SCCCCOc1ccccc1
114 to 115	c1ccc2c(c1)-c1ccccc1-2
217	COc1ccc(-c2cc(N3CCCC3)cc3c2c(=O)n(-c2ccccc2)n3C)cc1
115	Brc1ccc(Sc2ccc(Br)cc2)cc1
47	COc1ccc(OCC2CO2)cc1 (stereo unspecified)
79	O=C1CCCC2Cc3ccccc3C(=O)C12 (stereo unspecified)
203 to 206	Cn1c(N)nc2ccccc21
92	O=C(CCCN1CCN(c2ccccn2)CC1)c1ccc(F)cc1
167	CC(C)N(C1=NC(=Cc2ccccc2)C(=O)N1c1ccccc1)C(C)C
112	CC(C)(C)NC(=O)COC(=O)c1ccccc1
88 to 89	Cn1nc(-c2ccccc2)cc1C(=O)Cl
179	COc1ccccc1C1(C)CCc2oc3ccc(C)cc3c2-c2oc(C)cc21 (stereo unspecified)
56	COC(=O)C(C)Oc1ccc(Oc2ncc(C(F)(F)F)cc2Cl)cc1 (stereo unspecified)
176	COc1ccc(CC(N)C(=O)NC2C(CO)OC(n3cnc4c(N(C)C)ncnc43)C2O)cc1 (stereo unspecified)
100 to 109	Cc1ccccc1C1Cc2ccccc2C(O)O1 (stereo unspecified)
204 to 206	O=C(O)C=Cc1ccc(Oc2ccccc2)nc1
101	O=C(c1ccccc1)c1ccc2c3c(cccc13)CC2
95	CC1(C)C(=O)OC2=C(CCCC2)C1c1ccccc1 (stereo unspecified)
275	O=C1NN(c2ccccc2)C(=O)/C1=C/c1ccccc1

melting point [°C]	Structure (SMILES)
206 to 208	Nc1nc(-c2ccc(O)cc2)cs1
235 to 236	Nc1ccc(C#Cc2ccc(N)cc2)cc1
106	CN(CC(=O)O)C(=O)COC(=O)c1ccccc1
130 to 132	COc1ccccc1N1CCN(CC(N)=S)CC1
115 to 117	CSc1ncnc2c1cnn2-c1ccccc1
103 to 105	O=C(CCl)N(c1ccccc1)C1CCCCC1
307 to 308	Cc1cc(=O)[nH]c2c(/N=N/c3ccc(Cl)cc3)c(N)nn12
89	CCN(CC)CN1C(=O)/C(=C\c2ccc(Cl)cc2)SC1=S
245 to 248	O=C1C=CC(=O)N1c1ccccc1N1C(=O)C=CC1=O
87	Cc1ccc(C(c2ccc(C)o2)c2ccccc2C#N)o1
176	Cc1ccc(C(=O)C2=NN(c3ccccc3)C3C(=O)N(c4cccc([N+](=O)[O-])c4)C(=O)C23)cc1 (stereo unspecified)
130 to 131	Nc1ccc2c(c1)CCCC2=O
> 320	O=[N+]([O-])c1ccc(-c2nnc3n2CN(c2ccccc2)CS3)cc1
135 to 136	Cc1oc(-c2ccccc2)nc1C(=O)Cl
47	COC(=O)c1ccccc1OCc1ccccc1
220	c1ccc(C2Nn3c(nnc3-c3cccnc3)S2)cc1 (stereo unspecified)
186	O=Cc1ccccc1/C=C/c1ccc([N+](=O)[O-])cc1[N+](=O)[O-]
210 to 214	COc1ccc2c(-c3ccccc3)c(-c3ccccc3)[nH]c2c1
235	CC(=O)N(Nc1ccccc1)c1ccc(-c2ccc(N(Nc3ccccc3)C(C)=O)cc2)cc1
279 to 281	Cc1ccnc(Nc2nc3ccccc3[nH]2)c1
91 to 93	O=Cc1ccc(-c2ccc(C(F)(F)F)cn2)cc1
113	O=C(O)c1ccccc1Oc1ccccc1
175 to 177	O=C(O)c1cc(C(F)(F)F)ccc1N1CCOCC1
